{"source": "paper PMC5388777", "about": "(Frontiers in Psychiatry, 2017)", "key": {"mu opioid receptor": {"target": "T1, mu opioid receptor (Homo sapiens, UniProt P35372)", "T1 construct": "expressed in transfected cells; membranes prepared", "T1 sequence (P35372 whole entry)": "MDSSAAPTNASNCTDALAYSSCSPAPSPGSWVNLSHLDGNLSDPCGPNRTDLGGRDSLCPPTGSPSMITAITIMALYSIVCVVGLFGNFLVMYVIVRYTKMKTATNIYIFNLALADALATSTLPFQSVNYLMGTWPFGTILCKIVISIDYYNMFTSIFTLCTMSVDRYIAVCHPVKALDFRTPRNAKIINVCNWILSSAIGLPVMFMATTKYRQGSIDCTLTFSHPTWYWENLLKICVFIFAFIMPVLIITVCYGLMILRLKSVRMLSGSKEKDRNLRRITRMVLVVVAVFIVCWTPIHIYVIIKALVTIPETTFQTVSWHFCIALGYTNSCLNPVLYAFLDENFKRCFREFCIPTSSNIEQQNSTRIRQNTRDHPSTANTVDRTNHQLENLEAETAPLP", "type": "biochemical"}, "kappa opioid receptor [1]": {"target": "T2, kappa opioid receptor (Homo sapiens, UniProt P41145)", "T2 construct": "expressed in transfected cells; membranes prepared", "T2 sequence (P41145 whole entry)": "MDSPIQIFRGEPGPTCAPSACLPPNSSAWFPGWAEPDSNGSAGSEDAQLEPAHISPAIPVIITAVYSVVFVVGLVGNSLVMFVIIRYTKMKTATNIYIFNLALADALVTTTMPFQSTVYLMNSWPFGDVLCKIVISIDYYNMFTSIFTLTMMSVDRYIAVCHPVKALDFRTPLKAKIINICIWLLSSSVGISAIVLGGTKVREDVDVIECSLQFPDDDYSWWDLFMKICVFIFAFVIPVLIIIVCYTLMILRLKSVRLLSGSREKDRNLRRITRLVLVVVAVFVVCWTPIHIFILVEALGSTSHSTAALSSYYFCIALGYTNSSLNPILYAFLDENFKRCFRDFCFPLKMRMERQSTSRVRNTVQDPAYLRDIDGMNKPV", "experiment": "biochemical"}, "delta opioid receptor [2]": {"target": "T3, delta opioid receptor (Homo sapiens, UniProt P41143)", "T3 construct": "expressed in transfected cells; membranes prepared", "T3 sequence (P41143 whole entry)": "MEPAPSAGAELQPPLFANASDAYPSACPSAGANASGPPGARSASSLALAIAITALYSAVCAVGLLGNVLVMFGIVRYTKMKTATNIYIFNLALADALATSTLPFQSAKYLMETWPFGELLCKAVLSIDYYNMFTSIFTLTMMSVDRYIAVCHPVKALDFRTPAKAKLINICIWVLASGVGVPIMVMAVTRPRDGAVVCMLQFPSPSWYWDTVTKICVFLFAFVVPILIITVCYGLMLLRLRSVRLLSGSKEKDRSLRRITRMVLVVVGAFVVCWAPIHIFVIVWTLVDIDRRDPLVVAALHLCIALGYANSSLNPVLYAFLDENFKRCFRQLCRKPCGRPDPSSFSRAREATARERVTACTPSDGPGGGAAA", "experiment": "biochemical", "conditions": "Receptor binding Ki"}, "delta opioid receptor [3]": {"target": "T3, delta opioid receptor", "experiment": "[35S]GTPγS binding, CHO cell membranes", "type": "biochemical", "conditions": "for Delta % Stim.: [35S]GTPγS binding, mean ± SEM"}, "male ICR mice [4]": {"tested_on": "male ICR mice", "experiment": "Global activity during CPP conditioning", "type": "in vivo", "conditions": "s.c.; for Global activity versus vehicle controls: morphine 15 mg/kg (first injection), PPL-101 and PPL-103 3.0 mg/kg (first and third injections)"}, "male ICR mice [5]": {"tested_on": "male ICR mice", "experiment": "Tail flick assay (thermal nociception)", "type": "in vivo", "conditions": "for Antinociception (%MPE) versus vehicle: 60-min post-injection, s.c., PPL-101 0.3-10 mg/kg, PPL-103 0.3-3 mg/kg; for Tail flick latency after antagonist alone: given 24 h before vehicle, JDTic 10 mg/kg, beta-FNA 40 mg/kg s.c."}, "male Sprague-Dawley rats [6]": {"tested_on": "male Sprague-Dawley rats", "experiment": "Intravenous self-administration (FR-1 and PR schedules)"}, "male ICR mice [7]": {"tested_on": "male ICR mice", "experiment": "Conditioned place preference (CPP) paradigm", "type": "in vivo", "conditions": "s.c., three drug sessions; morphine 15 mg/kg, PPL-101 1-3 mg/kg, PPL-103 0.3-3 mg/kg"}, "non-human primates": {"tested_on": "non-human primates", "conditions": "ref Harris et al. unpublished observation; cited from earlier work"}, "kappa opioid receptor [8]": {"target": "T2, kappa opioid receptor", "experiment": "biochemical", "conditions": "Receptor binding Ki"}, "male Sprague-Dawley rats [9]": {"tested_on": "male Sprague-Dawley rats", "experiment": "Plantar test (paw withdrawal latency)", "type": "in vivo", "conditions": "U-69,593 0.3 mg/kg"}}, "note": "“And” between values parts separate entries of the source, which are not always exact repeats. Equal values may be shown once."}
{"smiles": "C[C@@H](NC(=O)[C@@H](N)Cc1ccc(O)cc1)C(=O)NCC(=O)N(C)[C@@H](Cc1ccccc1)C(=O)NCCO", "note": "[DAMGO, [D-Ala2, N-MePhe4, Gly-ol]-enkephalin, reference compound]", "values": [{"measurement": "Mu % Stim.", "setting": "mu opioid receptor", "result": 100, "unit": "%"}, {"measurement": "Kappa % Stim.", "setting": "kappa opioid receptor [1]", "result": "62 ± 21.0", "unit": "%"}]}
{"smiles": "CC(C1CC1)N1CCC23CCCCC2C1Cc1ccc(O)cc13", "note": "(stereo not drawn) [PPL-103, α-methyl-cyclopropylmethyl-morphinan]", "values": [{"measurement": "Ki", "setting": "delta opioid receptor [2]", "result": "0.29 ± 0.03", "unit": "nM"}, {"measurement": "EC50", "setting": "delta opioid receptor [3]", "result": "2.99 ± 0.92", "unit": "nM"}, {"measurement": "Delta % Stim.", "setting": "delta opioid receptor [3]", "result": "41.7 ± 5.0", "unit": "%"}, {"measurement": "Global activity versus vehicle controls", "setting": "male ICR mice [4]", "result": "decreases in global activity relative to vehicle controls following the first and third drug injections"}, {"measurement": "Antinociception (%MPE) versus vehicle", "setting": "male ICR mice [5]; morphine 15 mg/kg", "result": "potent antinociception at all doses tested"}, {"measurement": "Dose giving maximal antinociception equivalent to morphine, as fraction of morphine's dose", "setting": "male ICR mice [5]; mice", "result": "1/10"}, {"measurement": "Number of infusions under PR schedule", "setting": "male Sprague-Dawley rats [6]; 30-100 µg/kg/infusion i.v., versus morphine 100 µg/kg/infusion", "result": "significantly decreased compared to the morphine group"}, {"measurement": "Self-administration under FR-1 schedule when substituted for morphine", "setting": "male Sprague-Dawley rats [6]; 30 and 100 µg/kg/infusion i.v., versus morphine 100 µg/kg/infusion", "result": "markedly decreased as compared to responses for morphine across all test sessions"}, {"measurement": "Acquisition of CPP (difference score) versus vehicle controls", "setting": "male ICR mice [7]", "result": "did not reveal any significant difference"}, {"measurement": "Substitution for morphine in single-dose suppression test", "setting": "non-human primates", "result": "substituted for morphine"}, {"measurement": "EC50", "setting": "kappa opioid receptor [1]", "result": "9.01 ± 2.64", "unit": "nM"}, {"measurement": "Kappa % Stim.", "setting": "kappa opioid receptor [1]", "result": "39.8 ± 3.9", "unit": "%"}, {"measurement": "Ki", "setting": "kappa opioid receptor [8]", "result": "2.47 ± 0.105", "unit": "nM"}]}
{"smiles": "COC(=O)C=CC(=O)NC1CCC2(O)C3Cc4ccc(O)c5c4C2(CCN3CC2CC2)C1O5.Cl", "note": "(stereo not drawn) [beta-FNA, beta-funaltrexamine HCl, reference compound]", "values": [{"measurement": "Tail flick latency after antagonist alone", "setting": "male ICR mice [5]", "result": "have no effect on tail flick latency in mice"}]}
{"smiles": "CN1CC[C@]23c4c5ccc(O)c4O[C@H]2[C@@H](O)C=C[C@H]3[C@H]1C5", "note": "[Morphine, reference compound]", "values": [{"measurement": "Global activity versus vehicle controls", "setting": "male ICR mice [4]", "result": "increase in global activity after the first drug injection relative to vehicle controls"}, {"measurement": "Global activity after third versus first drug injection", "setting": "male ICR mice [4]; morphine 15 mg/kg, PPL-101 3 mg/kg", "result": "increase in activity following the third drug injection relative to the first drug injection"}, {"measurement": "Time course of antinociception (%MPE) versus vehicle", "setting": "male ICR mice [5]; 0.5, 1, 2, 4 h post-injection, PPL-101 0.3-10 mg/kg s.c., morphine 15 mg/kg", "result": "anticipated increase in %MPE at all the time points compared to vehicle controls"}, {"measurement": "Antinociception (%MPE) versus vehicle", "setting": "male ICR mice [5]; morphine 15 mg/kg", "result": "produced the maximal effect in increase in tail flick relative to vehicle controls"}, {"measurement": "Effect of JDTic pretreatment on the compound's antinociception", "setting": "male ICR mice [5]; JDTic 10 mg/kg s.c. 24 h before", "result": "not altered by the kappa antagonist JDTic"}, {"measurement": "Effect of beta-FNA pretreatment on the compound's antinociception", "setting": "male ICR mice [5]; beta-FNA 40 mg/kg s.c. 24 h before", "result": "completely inhibited by the mu opioid antagonist beta-FNA"}, {"measurement": "Effect of JDTic on self-administration of the compound", "setting": "male Sprague-Dawley rats [6]; 100 µg/kg/infusion, FR1TO20, JDTic 10 mg/kg i.p., seven sessions versus baseline", "result": "no significant effect of JDTic on morphine self-administration"}, {"measurement": "Average responses on the morphine-associated lever", "setting": "male Sprague-Dawley rats [6]; 100 µg/kg/infusion, last 3 days prior to PPL-101 self-administration, mean ± SEM", "result": "29.0 ± 5.8 and 27.2 ± 6.1 and 32.2 ± 12.6"}, {"measurement": "Acquisition of CPP (difference score) versus vehicle controls", "setting": "male ICR mice [7]", "result": "exhibited a significant CPP"}]}
{"smiles": "C[C@H]1[C@H]2Cc3ccc(O)cc3[C@]1(C)CCN2CC1CC1", "note": "[Cyclazocine, cycloproplymethyl-benzomorphan, reference compound]", "values": [{"measurement": "Ki", "setting": "delta opioid receptor [2]", "result": "0.8 ± 0.05", "unit": "nM"}, {"measurement": "Delta % Stim.", "setting": "delta opioid receptor [3]", "result": "82 ± 9", "unit": "%"}, {"measurement": "Mu % Stim.", "setting": "mu opioid receptor", "result": "33 ± 18", "unit": "%"}, {"measurement": "Kappa % Stim.", "setting": "kappa opioid receptor [1]", "result": "80 ± 9", "unit": "%"}, {"measurement": "Ki", "setting": "kappa opioid receptor [8]", "result": "0.1 ± 0.02", "unit": "nM"}]}
{"smiles": "CC(C)[C@@H](CN1CC[C@@](C)(c2cccc(O)c2)[C@@H](C)C1)NC(=O)[C@H]1Cc2ccc(O)cc2CN1", "note": "[JDTic, (3R)-7-hydroxy-N-[(1S)-1-[[(3R,4R)-4-(3-hydroxyphenyl)-3,4-dimethyl-1-piperidinyl]methyl]-2-methylpropyl]-1,2,3,4-tetrahydro-3-isoquinoline-carboxamide]", "values": [{"measurement": "Tail flick latency after antagonist alone", "setting": "male ICR mice [5]", "result": "have no effect on tail flick latency in mice"}, {"measurement": "Blockade of U-69,593-induced antinociception", "setting": "male Sprague-Dawley rats [9]; JDTic 10 mg/kg single dose", "result": "able to block the antinociceptive effect U-69,593"}, {"measurement": "Antinociception (paw withdrawal latency)", "setting": "male Sprague-Dawley rats [9]; JDTic 10 mg/kg single treatment one week before", "result": "by itself did not"}]}
